The results in this text go back to patent US20250243190A1, “NEW DEUTERATED RORGAMMA/RORGAMMAT INVERSE AGONISTS” (IMMUNIC AG, priority 2022, published 2025).

One series has as its target T1, RORγt (Homo sapiens, UniProt P51449).
T1 sequence (P51449 269-508 limits assumed): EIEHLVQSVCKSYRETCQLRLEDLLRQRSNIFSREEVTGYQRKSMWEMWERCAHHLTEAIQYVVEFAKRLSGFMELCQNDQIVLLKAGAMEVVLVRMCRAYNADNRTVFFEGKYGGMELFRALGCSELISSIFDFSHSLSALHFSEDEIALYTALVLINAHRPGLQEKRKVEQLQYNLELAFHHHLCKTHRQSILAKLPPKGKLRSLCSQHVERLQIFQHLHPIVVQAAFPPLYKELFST
In words: Indigo Biosciences Human RAR-related Orphan Receptor, Gamma Reporter Assay (in vitro inhibition of RORγt). It counts as cell-based. To be noted: RORγt reporter cells, luciferase readout, 22-24 h incubation; read-out: IC50 range. As to the method: The in vitro inhibition of RORγt was measured using Indigo Biosciences Human RAR-related Orphan Receptor, Gamma Reporter Assay System (Product #IB304001-32) as described in the technical manual. In brief, 200 μL of Reporter Cells is dispensed into wells of the assay plate and preincubated for 4-6 h. Following the pre-incubation period, culture media are discarded and 200 µL/well of the prepared 1×-concentration treatment media are added. Following 22-24 h incubation, treatment media are discarded and Luciferase Detection Reagent is added. The intensity of light emission (in units of ‘Relative Light Units’; RLU) from each assay well is quantified using a plate-reading luminometer. Average values of RLU were determined for each treatment concentration. Non-linear regression analyses were performed and IC50 values determined using GraphPad Prism software. Provided inverse-agonists ursolic acid served as positive control.

Another series concerns SARS-CoV-2. In words: Antiviral activity on SARS-CoV-2, viral replication (YFP) assay. It counts as cell-based. Conditions: Severe acute respiratory syndrome coronavirus 2, read-out: EC50 range. The source says: (§1) The assay for viral replication (YFP) and the cell viability assay has been described in general in Pathogens 2021; 10:1076 and applied to compounds of the present invention furnished the following results: […]

Series [1] can be described thus: Cell viability assay accompanying the SARS-CoV-2 assay. It counts as cell-based. Conditions: cell viability assay of the SARS-CoV-2 test.
Description: as §1

Series [2] is described as follows: Mouse pharmacokinetics, oral or intravenous cassette dosing. It counts as in vivo, mice (C57BL/6J). Conditions: C57BL/6J, whole blood, 3 female mice, 5 mg/kg oral cassette, sampling 0.25-8 h. How it is done: The pharmacokinetics of the compounds of the present invention was evaluated in 3 male and 3 female mice (C57BL/6J, 8 week old) after oral or intravenous cassette dosing to assess the oral bioavailability. Dose was 5 mg/kg (oral) and 1 mg/kg (intravenous), application volume was 5 mL/kg (oral) and 0.5 mL/kg (intravenous), vehicle was 5% solutol, 95% NaCl solution (at 0.9% saline concentration) for oral and 5% solutol, 5% Ethanol, 90% NaCl solution (at 0.9% saline concentration) for intravenous. At each designated time point (0.25, 0.5, 1, 2, 4, 8 and 24 h after dosing), 20 μL whole blood were collected from the tail vein into Li-heparin tubes, frozen on dry ice within 1-2 minutes of sampling and stored at −20° C. until processed for LC-MS analysis. The obtained data is as follows:
The pharmacokinetics of additional compounds of the present invention was evaluated in 3 female mice (C57BL/6J, 8 week old) after oral cassette dosing. Dose was 5 mg/kg, application volume was 5 mL/kg, vehicle was 5% solutol, 95% NaCl solution (at 0.9% saline concentration). At each designated time point (0.5, 1, 2, 4, 8 and 24 h after dosing), 20 μL whole blood were collected from the tail vein into Li-heparin tubes, frozen on dry ice within 1-2 minutes of sampling and stored at −20° C. until processed for LC-MS analysis. The obtained data is as follows:
The pharmacokinetics of additional compounds of the present invention was evaluated in 3 female mice (C57BL/6J, 8 week old) after oral cassette dosing. Dose was 5 mg/kg, application volume was 5 mL/kg, vehicle was 5% solutol, 95% NaCl solution (at 0.9% saline concentration). At each designated time point (0.25, 0.5, 1, 2, 4 and 8 h after dosing), 20 μL whole blood were collected from the tail vein into Li-heparin tubes, frozen on dry ice within 1-2 minutes of sampling and stored at −20° C. until processed for LC-MS analysis.

As usually defined, the IC50 is the concentration at which inhibition is half-maximal. In the case of `[2H][C@]1(n2ncc(-c3onc(-c4ccccc4Cl)c3-c3ncccn3)c2C(F)(F)F)C[C@@](C)(O)C1` [2-2/1], the IC50 on RORγt was 10 to 100 nM.
As to `[2H][C@]1(n2ncc(-c3onc(-c4c(F)cccc4Cl)c3-c3ncccn3)c2C(F)F)C[C@@](C)(O)C1` [4-2/1], the IC50 at RORγt lay in the range of 10 to 100 nM.
Still for that read-out and setting: the value for `[2H]c1c([2H])c(F)c(-c2noc(-c3cnn(C([2H])([2H])CC(C)(C)O)c3C(F)(F)F)c2-c2ncccn2)c(Cl)c1[2H]` [5/2] was < 10 nM.
The EC50 is the concentration giving half of the maximal effect. A word on the CC50: it is the concentration at which the toxic effect on the cells reaches its halfway point. For `[2H]C([2H])(CC(C)(C)O)n1ncc(-c2onc(-c3c(F)cccc3Cl)c2-c2ncccn2)c1COC` [10/2], in the series on SARS-CoV-2, the EC50 was 1000 to 50000 nM. The CC50 in series [1] is > 100000 nM. The IC50 on RORγt is 100 to 1000 nM.
In the case of `[2H]C([2H])(CC(C)(C)O)n1ncc(-c2onc(-c3c(F)cccc3Cl)c2-c2ncccn2)c1C1CC1` [10/3], in the series on SARS-CoV-2, the EC50 fell in the range of 100 to 1000 nM. Moreover, in series [1], the cytotoxic concentration (CC50) was > 100000 nM. Moreover, the concentration for half-maximal inhibition (IC50) at RORγt was in the range of 100 to 1000 nM.
On to `[2H]C([2H])(OC1COC1)c1c(-c2c(F)cccc2Cl)noc1-c1cnn(-c2cccc(Cl)c2)c1C(F)(F)F` [110/2], for which the IC50 on RORγt lay in the range of 10 to 100 nM.
In the case of `[2H]C([2H])(OCC)c1c(-c2c(F)cccc2Cl)noc1-c1cnn(-c2cccc(Cl)c2)c1C(F)(F)F` [110/3], the IC50 at RORγt lay in the range of 10 to 100 nM.
Still for that read-out and setting: in the case of `[2H]C([2H])(OC(C)C)c1c(-c2c(F)cc(F)cc2Cl)noc1-c1cnn(-c2cccc(Cl)c2)c1C(F)(F)F` [111/2] it was 100 to 1000 nM.
`[2H]C([2H])(OC1CC1)c1c(-c2c(F)cccc2Cl)noc1-c1cnn(-c2cc(F)cc(Cl)c2)c1C(F)(F)F` [111/3]: the IC50 at RORγt is 10 to 100 nM.
The same measure, in the same setting: in the case of `[2H]C([2H])(OC(C)C)c1c(-c2c(F)cccc2Cl)noc1-c1cnn(-c2cc(F)cc(Cl)c2)c1C(F)(F)F` [111/4] it was 10 to 100 nM.
With `[2H]C([2H])([C@H](C)O)n1ncc(-c2onc(-c3c(F)cccc3Cl)c2-c2ncccn2)c1C(F)(F)F` [Example 1, (S)-1-(4-(3-(2-Chloro-6-fluorophenyl)-4-(pyrimidin-2-yl)isoxazol-5-yl)-5-(trifluoromethyl)-1H-pyrazol-1-yl)propan-1,1-d2-2-ol], in the series on SARS-CoV-2, the concentration giving a half-maximal response (EC50) was < 100 nM. Also, in series [1], the CC50 was 22000 nM. Moreover, the IC50 at RORγt fell in the range of 10 to 100 nM.
For `[2H][C@]1(n2ncc(-c3onc(-c4c(F)cccc4Cl)c3-c3ncccn3)c2C(F)(F)F)C[C@](C)(O)C1` [Example 2-1, (1r,3r)-3-(4-(3-(2-Chloro-6-fluorophenyl)-4-(pyrimidin-2-yl)isoxazol-5-yl)-5-(trifluoro-methyl)-1H-pyrazol-1-yl)-1-methylcyclobutan-3-d-1-ol], the concentration for half-maximal inhibition (IC50) on RORγt was in the range of 100 to 1000 nM.
For `[2H][C@]1(n2ncc(-c3onc(-c4ccccc4Cl)c3-c3ncccn3)c2C(F)(F)F)C[C@](C)(O)C1` [Example 2-1/1], at RORγt, the IC50 is 100 to 1000 nM.
On the same count and under the same terms, the value for `[2H][C@]1(n2ncc(-c3onc(-c4c(F)cccc4Cl)c3-c3ncccn3)c2C(F)(F)F)C[C@@](C)(O)C1` [Example 2-2, (1s,3s)-3-(4-(3-(2-chloro-6-fluorophenyl)-4-(pyrimidin-2-yl)isoxazol-5-yl)-5-(trifluoromethyl)-1H-pyrazol-1-yl)-1-methylcyclobutan-3-d-1-ol] was 10 to 100 nM.
As to `[2H]C([2H])(CC(C)(C)O)n1ncc(-c2onc(-c3c(F)cccc3Cl)c2-c2nccs2)c1C(F)(F)F` [Example 3-1], in the series on SARS-CoV-2, the EC50 was < 100 nM. In series [1], this molecule showed a CC50 of 17000 nM. The IC50 at RORγt was < 10 nM.
As to `[2H]c1nc(-c2c(-c3c(F)cccc3Cl)noc2-c2cnn(C([2H])([2H])CC(C)(C)O)c2C(F)(F)F)sc1[2H]` [Example 3-2], on RORγt, the 50% inhibitory concentration (IC50) was < 10 nM.
As to `[2H]c1nc(-c2c(-c3c(F)cccc3Cl)noc2-c2cnn(C([2H])([2H])CC(C)(C)O)c2C(F)(F)F)nc([2H])c1[2H]` [Example 3-3], the IC50 on RORγt fell in the range of 10 to 100 nM.
Consider `[2H]C([2H])(CC(C)(C)O)n1ncc(-c2onc(-c3c(F)cccc3Cl)c2-c2ncccn2)c1C(F)F` [Example 4, 4-(4-(3-(2-Chloro-6-fluorophenyl)-4-(pyrimidin-2-yl)isoxazol-5-yl)-5-(difluoromethyl)-1H-pyrazol-1-yl)-2-methylbutan-4,4-d2-2-ol], for which the EC50 in the series with SARS-CoV-2 is < 100 nM. In addition, the CC50 in series [1] was > 100000 nM. At RORγt, the IC50 was 10 to 100 nM.
For the molecule `[2H][C@]1(n2ncc(-c3onc(-c4c(F)cccc4Cl)c3-c3ncccn3)c2C(F)F)C[C@](C)(O)C1` [Example 4-1/1], on RORγt, the IC50 was in the range of 100 to 1000 nM.
On to `[2H]C([2H])(CC(C)(C)O)n1ncc(-c2onc(-c3c(F)cc(OC)cc3Cl)c2-c2ncccn2)c1C(F)(F)F` [Example 5, 4-(4-(3-(2-Chloro-6-fluoro-4-methoxyphenyl)-4-(pyrimidin-2-yl)isoxazol-5-yl)-5-(trifluoro-methyl)-1H-pyrazol-1-yl)-2-methylbutan-4,4-d2-2-ol], for which the 50% effective concentration (EC50) in the series with SARS-CoV-2 lay in the range of 100 to 1000 nM. Besides, in series [1], the half-maximal cytotoxic concentration (CC50) was > 100000 nM. Besides, the IC50 at RORγt was 100 to 1000 nM.
Consider `[2H]C([2H])([2H])C([2H])([2H])OC(=O)c1c(-c2c(F)cccc2Cl)noc1-c1cnn(-c2cccc(Cl)c2)c1C(F)(F)F` [Example 100/1], for which the IC50 on RORγt was < 10 nM.
As to `[2H]c1nc(-c2c(-c3c(F)cccc3Cl)noc2-c2cnn(-c3cccc(Cl)c3)c2C(F)(F)F)nc([2H])c1[2H]` [Example 103, 3-(2-Chloro-6-fluorophenyl)-5-(1-(3-chlorophenyl)-5-(trifluoromethyl)-1H-pyrazol-4-yl)-4-(pyrimidin-2-yl-d3)isoxazole], the IC50 at RORγt lay within 10 to 100 nM.
The same measure, in the same setting: in the case of `[2H]c1c([2H])c(F)c(-c2noc(-c3cnn(-c4cccc(Cl)c4)c3C(F)(F)F)c2C(=O)OC)c(Cl)c1[2H]` [Example 104, Methyl 3-(2-chloro-6-fluorophenyl-3,4,5-d3)-5-(1-(3-chlorophenyl)-5-(trifluoro-methyl)-1H-pyrazol-4-yl)isoxazole-4-carboxylate] it was 10 to 100 nM; in that of `[2H]c1cc([2H])c(-n2ncc(-c3onc(-c4c(F)cccc4Cl)c3C(=O)OC)c2C(F)(F)F)c([2H])c1Cl` [Example 105, Methyl 3-(2-chloro-6-fluorophenyl)-5-(1-(3-chlorophenyl-2,4,6-d3)-5-(trifluoro-methyl)-1H-pyrazol-4-yl)isoxazole-4-carboxylate], < 10 nM; in that of `[2H]c1cc([2H])c(-n2ncc(-c3onc(-c4c(F)cccc4Cl)c3-c3nccs3)c2C(F)(F)F)c([2H])c1Cl` [Example 106, 3-(2-Chloro-6-fluorophenyl)-5-(1-(3-chlorophenyl-2,4,6-d3)-5-(trifluoromethyl)-1H-pyrazol-4-yl)-4-(thiazol-2-yl)isoxazole], < 10 nM.
By half-life is commonly meant the time needed for the level to fall by half in the phase considered. The low end stands for rapid decline, the high end for slow decline. Take `[2H]c1nc(-c2c(-c3c(F)cccc3Cl)noc2-c2cnn(-c3cccc(Cl)c3)c2C(F)(F)F)sc1[2H]` [Example 107, 3-(2-Chloro-6-fluorophenyl)-5-(1-(3-chlorophenyl)-5-(trifluoromethyl)-1H-pyrazol-4-yl)-4-(thiazol-2-yl-d2)isoxazole]: on RORγt, the IC50 lay within 10 to 100 nM. Moreover, the half-life in series [2] is 1.6 h. In addition, the AUC(0-t) in series [2] (read-out: AUC0-8 h) is 871 ng·h/mL.
Turning to `[2H]C([2H])(OC(F)(F)F)c1c(-c2c(F)cccc2Cl)noc1-c1cnn(-c2cccc(Cl)c2)c1C(F)(F)F` [Example 109, 3-(2-Chloro-6-fluorophenyl)-5-(1-(3-chlorophenyl)-5-(trifluoromethyl)-1H-pyrazol-4-yl)-4-((trifluoromethoxy)methyl-d2)isoxazole], the IC50 at RORγt lay in the range of 10 to 100 nM.
On the same count and under the same terms, the value for `[2H]C([2H])(OC1CC1)c1c(-c2c(F)cc(F)cc2Cl)noc1-c1cnn(-c2cccc(Cl)c2)c1C(F)(F)F` [Example 111/1] was 100 to 1000 nM.
